Values quoted from earlier work as cited in US6479236B2, “Genotyping the human UDP-glucuronosyltransferase 1 (UGT1) gene” (DNA Sciences Laboratories, Inc., priority 1998, dated 2002).

Key:
UGT1*6 = UGT1*6 (Homo sapiens, UniProt P19224); conditions: substrate of UGT1*6
UGT1*7 = target: T1, UGT1*7 (Homo sapiens, UniProt O60656); conditions: substrate of UGT1*7
T1 sequence (O60656 26-530): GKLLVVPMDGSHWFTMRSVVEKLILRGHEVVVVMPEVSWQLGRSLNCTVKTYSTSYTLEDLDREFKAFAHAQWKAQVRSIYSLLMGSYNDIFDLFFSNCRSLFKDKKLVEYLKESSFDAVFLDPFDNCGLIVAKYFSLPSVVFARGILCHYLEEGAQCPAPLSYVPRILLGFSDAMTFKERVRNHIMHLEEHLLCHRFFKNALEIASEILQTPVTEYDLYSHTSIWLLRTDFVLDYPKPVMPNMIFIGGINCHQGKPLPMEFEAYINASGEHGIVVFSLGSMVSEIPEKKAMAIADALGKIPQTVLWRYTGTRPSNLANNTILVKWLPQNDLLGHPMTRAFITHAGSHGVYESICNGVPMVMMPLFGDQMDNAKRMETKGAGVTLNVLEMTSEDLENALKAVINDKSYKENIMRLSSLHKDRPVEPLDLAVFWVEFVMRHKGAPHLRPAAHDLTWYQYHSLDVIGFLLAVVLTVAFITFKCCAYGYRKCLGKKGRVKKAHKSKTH

UGT1*1 = target: T2, UGT1*1 (Homo sapiens, UniProt P22309); conditions: for Km: substrate of UGT1*1; for binding to UGT1*1 compared with bilirubin: relative to the endogenous substrate bilirubin
T2 sequence (P22309 26-533): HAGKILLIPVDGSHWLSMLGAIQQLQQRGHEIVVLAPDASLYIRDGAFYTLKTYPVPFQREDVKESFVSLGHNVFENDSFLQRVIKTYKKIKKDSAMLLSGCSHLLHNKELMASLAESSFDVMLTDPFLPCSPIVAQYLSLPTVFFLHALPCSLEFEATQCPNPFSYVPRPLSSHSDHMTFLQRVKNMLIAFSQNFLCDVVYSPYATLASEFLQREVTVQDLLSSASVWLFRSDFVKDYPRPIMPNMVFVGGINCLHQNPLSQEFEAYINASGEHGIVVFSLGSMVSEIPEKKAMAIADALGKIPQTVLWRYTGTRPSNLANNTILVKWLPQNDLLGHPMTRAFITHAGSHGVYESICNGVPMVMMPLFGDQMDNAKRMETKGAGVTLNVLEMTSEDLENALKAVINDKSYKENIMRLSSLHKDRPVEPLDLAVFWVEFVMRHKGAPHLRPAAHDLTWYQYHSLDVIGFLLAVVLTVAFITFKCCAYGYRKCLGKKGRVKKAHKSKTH

| Km (UGT1*6) | Km (UGT1*1) | binding to UGT1*1 compared with bilirubin (UGT1*1) | SMILES | Km (UGT1*7) |
| --- | --- | --- | --- | --- |
| 2000 µM |  |  | CC(=O)Nc1ccc(O)cc1 [Acetaminophen] | 50000 µM |
|  | 24 µM |  | C=CC1=C(C)/C(=C/c2[nH]c(Cc3[nH]c(/C=C4\NC(=O)C(C)=C4C=C)c(C)c3CCC(=O)O)c(CCC(=O)O)c2C)NC1=O [Bilirubin] |  |
|  | 162 µM | more readily binds | CCCCCCCCOC(=O)c1cc(O)c(O)c(O)c1 [Octyl gallate] | 158 µM |
|  |  |  | CC(C)c1cccc(C(C)C)c1O [Propofol] | 172 µM |
|  |  | more readily binds | Cc1cc(O)c2c(c1)C(=O)c1cc(O)cc(O)c1C2=O [emodin] |  |

| SMILES | Km (UGT1*6) | Km (UGT1*1) | binding to UGT1*1 compared with bilirubin (UGT1*1) | Km (UGT1*7) |
| --- | --- | --- | --- | --- |
| O=C(O)[C@H]1O[C@H](OP(=O)(O)OP(=O)(O)OC[C@H]2O[C@@H](n3ccc(=O)[nH]c3=O)[C@H](O)[C@@H]2O)[C@H](O)[C@@H](O)[C@@H]1O [UDPGA] |  | 410 µM |  | 410 µM |
